# Reference: US20240115557A1, “INHIBITORS OF RNA-GUIDED NUCLEASES AND USES THEREOF” (The Brigham and Women's Hospital, Inc., priority 2022, published 2024)
# What was measured:
# SpCas9 [1] = target: T1, SpCas9 (Streptococcus pyogenes serotype M1, UniProt Q99ZW2); experiment: Strand displacement assay (SDA) / cumulative activity assay (CAA), SpCas9 primary screen; assay type: biochemical; settings: Primary Screen (150 min); for Normalized Z score 1: replicate 1; for Normalized Z score 2: replicate 2
# T1 sequence (Q99ZW2 whole entry): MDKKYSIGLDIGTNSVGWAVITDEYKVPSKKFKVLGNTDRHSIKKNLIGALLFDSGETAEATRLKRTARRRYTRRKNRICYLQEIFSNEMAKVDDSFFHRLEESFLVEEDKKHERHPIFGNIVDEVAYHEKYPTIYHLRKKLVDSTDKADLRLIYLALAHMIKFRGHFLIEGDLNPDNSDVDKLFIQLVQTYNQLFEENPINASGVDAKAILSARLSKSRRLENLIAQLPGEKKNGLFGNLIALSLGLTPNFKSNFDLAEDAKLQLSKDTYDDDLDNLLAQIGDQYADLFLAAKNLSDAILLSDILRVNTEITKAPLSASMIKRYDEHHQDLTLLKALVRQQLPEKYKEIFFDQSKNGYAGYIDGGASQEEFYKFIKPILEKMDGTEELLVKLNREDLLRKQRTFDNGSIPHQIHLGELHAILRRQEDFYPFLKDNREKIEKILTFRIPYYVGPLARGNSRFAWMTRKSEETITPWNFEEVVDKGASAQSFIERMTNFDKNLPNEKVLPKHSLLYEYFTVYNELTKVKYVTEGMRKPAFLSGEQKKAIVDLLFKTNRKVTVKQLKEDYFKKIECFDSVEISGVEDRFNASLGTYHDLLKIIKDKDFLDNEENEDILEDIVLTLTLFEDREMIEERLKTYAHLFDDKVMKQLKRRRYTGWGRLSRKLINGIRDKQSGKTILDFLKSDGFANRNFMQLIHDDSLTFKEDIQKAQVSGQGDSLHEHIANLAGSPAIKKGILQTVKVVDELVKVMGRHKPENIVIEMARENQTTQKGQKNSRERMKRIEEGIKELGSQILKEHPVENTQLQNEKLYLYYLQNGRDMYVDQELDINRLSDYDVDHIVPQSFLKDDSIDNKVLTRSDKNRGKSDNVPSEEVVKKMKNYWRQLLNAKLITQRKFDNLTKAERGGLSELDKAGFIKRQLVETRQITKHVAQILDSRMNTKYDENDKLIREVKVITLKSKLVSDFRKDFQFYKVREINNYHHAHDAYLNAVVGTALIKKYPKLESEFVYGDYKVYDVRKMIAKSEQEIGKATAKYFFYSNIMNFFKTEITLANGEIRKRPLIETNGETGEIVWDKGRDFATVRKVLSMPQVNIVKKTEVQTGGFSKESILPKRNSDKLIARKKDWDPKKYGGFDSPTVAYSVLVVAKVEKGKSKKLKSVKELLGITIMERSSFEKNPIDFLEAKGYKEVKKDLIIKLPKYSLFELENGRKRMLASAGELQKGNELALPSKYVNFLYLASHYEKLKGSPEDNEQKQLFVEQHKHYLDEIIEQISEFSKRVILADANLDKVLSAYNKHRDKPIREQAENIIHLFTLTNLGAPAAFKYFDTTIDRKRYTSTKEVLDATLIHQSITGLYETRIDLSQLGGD
# Description: Screening of inhibitors was via a high throughput pipeline, as depicted in FIG. 29. The first screening is via a strand displacement assay (SDA) for detecting nuclease activity (FIG. 27A, 28A). The Cpf1/Cas12 protein/DNA complex has a different structure from Cas9 and requires optimization of the potential fluorophore attachment sites (Yamano, T et al., Cell, 2016). (FIG. 28A). Next screened compounds are evaluated in an eGFP cell assay, and for eGFP dose. Those compounds are further narrowed via a HiBiT assay and finally evaluated in the surveyor assay. SAR evaluations are performed to arrive at lead compounds for further evaluations and variations. General methodology for the assays is as described in at [0253]-[0301] of U.S. Patent Application 62/831,143 filed Apr. 8, 2019, incorporated herein by reference.
# The 3′ end of the displacing single-stranded DNA was labeled with a quencher. Following nuclease cleavage of the substrate, the 3′-labeled quenching DNA strand (present in excess) could outcompete the weakly held 3′ strand to anneal to the 5′ strand. The resulting FRET fluorescence quenching provides an optical readout for nuclease activity (FIG. 62A).
# Typically, SpCas9: gRNA (1:1.2 ratio) RNP was pre-formed at 1 μM in Cas9 assay buffer (20 mM Tris-HCl, pH=7.5, 100 mM KCl, 5 mM MgCl2) for 5 min at 4° C. before diluting to 10 nM in Cas9 assay buffer (2× final concentration). 25 μL of the Cas9 2× stock was manually dispensed to a black 384-well plate (Corning 3575) using electronic pipette. […] Following this, pre-annealed Alexa-Fluor 647 labeled substrate and quencher were also diluted to 1 nM and 5 nM in Cas9 assay buffer, respectively (2× stock solution). Next, 25 μL of the substrate/quencher solution was added manually to each well of the Cas9-containing 384-well plates using an electronic pipette and was incubated at 37° C. for 2.5 h. Fluorescent signals were read with the microplate reader set to read Alexa-Fluor 647 fluorescence. Assay was performed similarly with SaCas9 and FnCas12a using the respective enzyme, gRNA, substrate, and quencher oligos. […]
# SpCas9 [2] = target: T1, SpCas9; experiment: eGFP disruption assay, SpCas9, U2OS.eGFP.PEST cells; assay type: cell-based; settings: for Normalized Z rep1 / Z score Rep1: replicate 1; for SpCas9 eGFP disruption Rep1: replicate 1, raw readout; for Normalized Z rep2 / Z socre Rep2: replicate 2; for SpCas9 eGFP disruption Rep2: replicate 2, raw readout
# Summary of the method: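 Rescue of eGFP signal lost through Cas9-induced NHEJ indels serves as the inhibition read-out, after 24 h compound exposure (20 μM for hits, variable for dose-response). Editing was delivered by nucleofection into U2OS.eGFP.PEST cells as SpCas9/gRNA plasmids (300/30 ng) or RNP (10/12 pmol). Toxic and autofluorescent compounds were excluded.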
# [3] = Cas9 = lower control, Ctrl = upper control
# [4] = normalized, lower control about 0, upper control about 1
compound,measurement,setting,value
O=C(Nc1nc(-c2ccccc2)c(C(=O)c2ccccc2)s1)c1ccc2c(c1)OCCO2 [Compound G786-0335],Average Normalized Z score,SpCas9 [1],0.04
same,avg z score primary,SpCas9 [1],4.14
same,Normalized Z score 1,SpCas9 [1],0.04
same,Normalized Z score 2,SpCas9 [1],0.04
same,Normalized Z rep1,SpCas9 [2],−0.08
same,Z score Rep1,SpCas9 [2],−0.79
same,SpCas9 eGFP disruption Rep1,SpCas9 [2],74.347
same,Normalized Z rep2,SpCas9 [2],0.09
same,Z socre Rep2,SpCas9 [2],2.13
same,SpCas9 eGFP disruption Rep2,SpCas9 [2],77.667
CNS(=O)(=O)c1ccc2nc(NC(=O)c3ccc(N4C(=O)CCC4=O)cc3)sc2c1 [Compound G786-1562],Average Normalized Z score,SpCas9 [1],0.06
same,avg z score primary,SpCas9 [1],6.00
same,Normalized Z score 1,SpCas9 [1],0.05
same,Normalized Z score 2,SpCas9 [1],0.07
same,Normalized Z rep1,SpCas9 [2],−0.26
same,Z score Rep1,SpCas9 [2],−2.41
same,SpCas9 eGFP disruption Rep1,SpCas9 [2],57.872
same,Normalized Z rep2,SpCas9 [2],−0.25
same,Z socre Rep2,SpCas9 [2],−3.72
same,SpCas9 eGFP disruption Rep2,SpCas9 [2],60.132
Cc1ccc(-c2nc(CN3CCCC(C(=O)Nc4cc(C)ccc4O)C3)no2)cc1 (centres unmarked) [Compound J065-2258],Average Normalized Z score,SpCas9 [1],0.12
same,avg z score primary,SpCas9 [1],5.05
same,Normalized Z score 1,SpCas9 [1],0.10
same,Normalized Z score 2,SpCas9 [1],0.14
same,Normalized Z rep1,SpCas9 [2],−0.12
same,Z score Rep1,SpCas9 [2],−1.25
same,SpCas9 eGFP disruption Rep1,SpCas9 [2],73.517
same,Normalized Z rep2,SpCas9 [2],−0.06
same,Z socre Rep2,SpCas9 [2],−1.43
same,SpCas9 eGFP disruption Rep2,SpCas9 [2],74.702
C=Cc1ccc(CSC2=NS(=O)(=O)c3ccccc3N2)cc1 [Compound K261-1443],Average Normalized Z score,SpCas9 [1],0.16
same,avg z score primary,SpCas9 [1],4.25
same,Normalized Z score 1,SpCas9 [1],0.15
same,Normalized Z score 2,SpCas9 [1],0.17
same,Normalized Z rep1,SpCas9 [2],−0.17
same,Z score Rep1,SpCas9 [2],−1.74
same,SpCas9 eGFP disruption Rep1,SpCas9 [2],72.619
same,Normalized Z rep2,SpCas9 [2],−0.19
same,Z socre Rep2,SpCas9 [2],−4.27
same,SpCas9 eGFP disruption Rep2,SpCas9 [2],72.337
CCc1cccc(-n2nnnc2N2CCN(C(=O)Nc3ccc(C)cc3Cl)CC2)c1 [Compound L378-0331],Average Normalized Z score,SpCas9 [1],0.19
same,avg z score primary,SpCas9 [1],5.44
same,Normalized Z score 1,SpCas9 [1],0.16
same,Normalized Z score 2,SpCas9 [1],0.21
same,Normalized Z rep1,SpCas9 [2],−0.41
same,Z score Rep1,SpCas9 [2],−2.70
same,SpCas9 eGFP disruption Rep1,SpCas9 [2],68.157
same,Normalized Z rep2,SpCas9 [2],0.06
same,Z socre Rep2,SpCas9 [2],0.61
same,SpCas9 eGFP disruption Rep2,SpCas9 [2],77.513
CC(C)CNC(=O)c1ccc(Oc2ccnc(-c3ccc(F)cc3)n2)cc1 [Compound L662-0597],Average Normalized Z score,SpCas9 [1],0.37
same,avg z score primary,SpCas9 [1],7.15
same,Normalized Z score 1,SpCas9 [1],0.36
same,Normalized Z score 2,SpCas9 [1],0.37
same,Normalized Z rep1,SpCas9 [2],0.00
same,Z score Rep1,SpCas9 [2],0.02
same,SpCas9 eGFP disruption Rep1,SpCas9 [2],76.108
same,Normalized Z rep2,SpCas9 [2],−0.15
same,Z socre Rep2,SpCas9 [2],−1.39
same,SpCas9 eGFP disruption Rep2,SpCas9 [2],73.535
O=C(NCC1CCCO1)c1ccc(Oc2ccnc(-c3ccc(F)cc3)n2)cc1 (centres unmarked) [Compound L662-0604],Average Normalized Z score,SpCas9 [1],0.35
same,avg z score primary,SpCas9 [1],6.87
same,Normalized Z score 1,SpCas9 [1],0.33
same,Normalized Z score 2,SpCas9 [1],0.38
same,Z score Rep1,SpCas9 [2],0.38
same,SpCas9 eGFP disruption Rep1,SpCas9 [2]; [3],77.166
same,Normalized Z rep1,SpCas9 [2]; [4],0.06
same,Z socre Rep2,SpCas9 [2],0.09
same,SpCas9 eGFP disruption Rep2,SpCas9 [2]; [3],76.48
same,Normalized Z rep2,SpCas9 [2]; [4],0.01
O=C(Nc1ccc(F)c(Cl)c1)c1ccc(Oc2ccnc(-c3ccc(F)cc3)n2)cc1 [Compound L662-0654],Average Normalized Z score,SpCas9 [1],0.30
same,avg z score primary,SpCas9 [1],5.79
same,Normalized Z score 1,SpCas9 [1],0.30
same,Normalized Z score 2,SpCas9 [1],0.29
same,Normalized Z rep1,SpCas9 [2],−0.13
same,Z score Rep1,SpCas9 [2],−0.84
same,SpCas9 eGFP disruption Rep1,SpCas9 [2],73.611
same,Normalized Z rep2,SpCas9 [2],−0.14
same,Z socre Rep2,SpCas9 [2],−1.37
same,SpCas9 eGFP disruption Rep2,SpCas9 [2],73.579
COc1ccc(OC)c(CNC(=O)c2ccc(Oc3ccnc(-c4cccc(F)c4)n3)cc2)c1 [Compound L662-0973],Average Normalized Z score,SpCas9 [1],0.29
same,avg z score primary,SpCas9 [1],5.63
same,Normalized Z score 1,SpCas9 [1],0.35
same,Normalized Z score 2,SpCas9 [1],0.24
same,Z score Rep1,SpCas9 [2],0.85
same,SpCas9 eGFP disruption Rep1,SpCas9 [2]; [3],78.528
same,Normalized Z rep1,SpCas9 [2]; [4],0.13
same,Z socre Rep2,SpCas9 [2],1.27
same,SpCas9 eGFP disruption Rep2,SpCas9 [2]; [3],78.814
same,Normalized Z rep2,SpCas9 [2]; [4],0.13
O=C(NCc1ccc(F)cc1)c1ccc(Oc2ccnc(-c3cccc(F)c3)n2)cc1 [Compound L662-0977],Average Normalized Z score,SpCas9 [1],0.44
same,avg z score primary,SpCas9 [1],8.64
same,Normalized Z score 1,SpCas9 [1],0.42
same,Normalized Z score 2,SpCas9 [1],0.47
same,Normalized Z rep1,SpCas9 [2],−0.03
same,Z score Rep1,SpCas9 [2],−0.18
same,SpCas9 eGFP disruption Rep1,SpCas9 [2],75.519
same,Normalized Z rep2,SpCas9 [2],−0.08
same,Z socre Rep2,SpCas9 [2],−0.72
same,SpCas9 eGFP disruption Rep2,SpCas9 [2],74.871
COc1ccc(CNC(=O)c2ccc(Oc3ccnc(-c4cccc(F)c4)n3)cc2)c(OC)c1 [Compound L662-0987],Average Normalized Z score,SpCas9 [1],0.37
same,avg z score primary,SpCas9 [1],7.18
same,Normalized Z score 1,SpCas9 [1],0.38
same,Normalized Z score 2,SpCas9 [1],0.36
same,Z score Rep1,SpCas9 [2],1.06
same,SpCas9 eGFP disruption Rep1,SpCas9 [2]; [3],79.157
same,Normalized Z rep1,SpCas9 [2]; [4],0.16
same,Z socre Rep2,SpCas9 [2],1.78
same,SpCas9 eGFP disruption Rep2,SpCas9 [2]; [3],79.829
same,Normalized Z rep2,SpCas9 [2]; [4],0.19
CCC(C)NC(=O)c1cccc(Oc2cc(-c3ccccc3)ncn2)c1 (centres unmarked) [Compound L663-0996],Average Normalized Z score,SpCas9 [1],0.39
same,avg z score primary,SpCas9 [1],7.57
same,Normalized Z score 1,SpCas9 [1],0.43
same,Normalized Z score 2,SpCas9 [1],0.35
same,Normalized Z rep1,SpCas9 [2],−0.03
same,Z score Rep1,SpCas9 [2],−0.21
same,SpCas9 eGFP disruption Rep1,SpCas9 [2],75.44
same,Normalized Z rep2,SpCas9 [2],−0.37
same,Z socre Rep2,SpCas9 [2],−3.54
same,SpCas9 eGFP disruption Rep2,SpCas9 [2],69.294
O=C(NC1CCCCC1)c1cccc(Oc2cc(-c3ccccc3)ncn2)c1 [Compound L663-0999],Average Normalized Z score,SpCas9 [1],0.40
same,avg z score primary,SpCas9 [1],7.77
same,Normalized Z score 1,SpCas9 [1],0.44
same,Normalized Z score 2,SpCas9 [1],0.36
same,Z score Rep1,SpCas9 [2],0.55
same,SpCas9 eGFP disruption Rep1,SpCas9 [2]; [3],77.659
same,Normalized Z rep1,SpCas9 [2]; [4],0.08
same,Z socre Rep2,SpCas9 [2],−1.03
same,SpCas9 eGFP disruption Rep2,SpCas9 [2]; [3],74.256
same,Normalized Z rep2,SpCas9 [2]; [4],−0.11
O=C(NC1CCCC1)c1cccc(Oc2cc(-c3ccccc3)ncn2)c1 [Compound L663-1002],Average Normalized Z score,SpCas9 [1],0.27
same,avg z score primary,SpCas9 [1],5.18
same,Normalized Z score 1,SpCas9 [1],0.22
same,Normalized Z score 2,SpCas9 [1],0.31
same,Normalized Z rep1,SpCas9 [2],−0.26
same,Z score Rep1,SpCas9 [2],−1.70
same,SpCas9 eGFP disruption Rep1,SpCas9 [2],71.095
same,Normalized Z rep2,SpCas9 [2],0.01
same,Z socre Rep2,SpCas9 [2],0.05
same,SpCas9 eGFP disruption Rep2,SpCas9 [2],76.396
